{"source": "patent US20180200257A1", "about": "“METHODS FOR THE TREATMENT OF INFLAMMATORY DISORDERS” (Galapagos NV, priority 2015, published 2018)", "system": "Subjects With Active Crohn's Disease With Evidence of Mucosal Ulceration", "experiment": "Study 3 - Alanine Aminotransferase (ALT) levels", "assay_type": "in vivo, human", "excerpt": "Double-Blind, Randomized, Placebo-Controlled, Multi-Centre Study to Investigate the Efficacy and Safety of Compound 1 in Subjects With Active Crohn's Disease With Evidence of Mucosal Ulceration. This is a double-blind, randomized, placebo-controlled, multi-centre Phase 2 study to investigate the efficacy and safety of Compound 1 administered once daily for the treatment of active CD with evidence of mucosal ulceration. The pharmacokinetics (including a PK substudy) and pharmacodynamics of Compound 1 and metabolite in CD will also be characterised. A total of 180 eligible subjects will be randomized to receive Compound 1 or placebo in addition to their stable background treatment (eg, corticosteroids, aminosalicylates, or CD-related antibiotics). The study will consist of 2 parts, with total treatment duration of 20 weeks. Randomization in Part 1 will be stratified according the subject's previous anti-TNF exposure/response, CRP level at Screening, and oral corticosteroid use at visit Day −1. After the first 10 weeks of treatment in Part 1, patients will be re-randomized for Part 2 as shown in the diagram below and will be stratified according to the subject's clinical response, previous anti-TNF exposure/response, and oral corticosteroid use at visit Day -1. [table] ALT levels determination is available at Quest Diagnostics, Clinical Trials, Quest House, 125-135 Staines Road, Hounslow, Middlesex, TW3 3JB, United Kingdom under Catalogue n#84460. ALT catalyzes the exchange of the amino group of alanine with the oxogroup of 2-ketoglutarate to form pyruvate and glutamate. In the presence of lactic dehydrogenase, pyruvate reacts with NADH to form NAD+, measured spectrophotometrically. Guidelines for the ALT value have been issued by the association for Clinical Biochemistry and Laboratory Medicine, 130-132 Tooley Street LONDON SE1 2TU, united Kingdom, wherein the ALT value should be below 34 U/l in Female and below 52 U/L in male.", "key": {"[1]": {"conditions": "10 weeks results, 200 mg q.d., week 2"}, "[2]": {"conditions": "10 weeks results, 200 mg q.d., week 4"}, "[3]": {"conditions": "10 weeks results, 200 mg q.d., week 6"}, "[4]": {"conditions": "10 weeks results, 200 mg q.d., week 10"}, "[5]": {"conditions": "20 weeks results, 200 mg q.d. week 0 to 10, to 100 mg q.d. week 10 to 20, week 2"}, "[6]": {"conditions": "20 weeks results, 200 mg q.d. week 0 to 10, to 100 mg q.d. week 10 to 20, week 4"}, "[7]": {"conditions": "20 weeks results, 200 mg q.d. week 0 to 10, to 100 mg q.d. week 10 to 20, week 6"}, "[8]": {"conditions": "20 weeks results, 200 mg q.d. week 0 to 10, to 100 mg q.d. week 10 to 20, week 10"}, "[9]": {"conditions": "20 weeks results, 200 mg q.d. week 0 to 10, to 100 mg q.d. week 10 to 20, week 12"}, "[10]": {"conditions": "20 weeks results, 200 mg q.d. week 0 to 10, to 100 mg q.d. week 10 to 20, week 16"}, "[11]": {"conditions": "20 weeks results, 200 mg q.d. week 0 to 10, to 100 mg q.d. week 10 to 20, week 20"}, "[12]": {"conditions": "20 weeks results, 200 mg q.d. week 0 to 10, to placebo week 10 to 20, week 2"}, "[13]": {"conditions": "20 weeks results, 200 mg q.d. week 0 to 10, to placebo week 10 to 20, week 4"}, "[14]": {"conditions": "20 weeks results, 200 mg q.d. week 0 to 10, to placebo week 10 to 20, week 6"}, "[15]": {"conditions": "20 weeks results, 200 mg q.d. week 0 to 10, to placebo week 10 to 20, week 10"}, "[16]": {"conditions": "20 weeks results, 200 mg q.d. week 0 to 10, to placebo week 10 to 20, week 12"}, "[17]": {"conditions": "20 weeks results, 200 mg q.d. week 0 to 10, to placebo week 10 to 20, week 16"}, "[18]": {"conditions": "20 weeks results, 200 mg q.d. week 0 to 10, to placebo week 10 to 20, week 20"}, "[19]": {"conditions": "20 weeks results, continued 200 mg q.d., week 2"}, "[20]": {"conditions": "20 weeks results, continued 200 mg q.d., week 4"}, "[21]": {"conditions": "20 weeks results, continued 200 mg q.d., week 6"}, "[22]": {"conditions": "20 weeks results, continued 200 mg q.d., week 10"}, "[23]": {"conditions": "20 weeks results, continued 200 mg q.d., week 12"}, "[24]": {"conditions": "20 weeks results, continued 200 mg q.d., week 16"}, "[25]": {"conditions": "20 weeks results, continued 200 mg q.d., week 20"}, "[26]": {"conditions": "20 weeks results, placebo week 0 to 10, to 100 mg q.d. week 10 to 20, week 12"}, "[27]": {"conditions": "20 weeks results, placebo week 0 to 10, to 100 mg q.d. week 10 to 20, week 16"}, "[28]": {"conditions": "20 weeks results, placebo week 0 to 10, to 100 mg q.d. week 10 to 20, week 20"}}}
{"smiles": "O=C(Nc1nc2cccc(-c3ccc(CN4CCS(=O)(=O)CC4)cc3)n2n1)C1CC1", "note": "[Compound 1, cyclopropanecarboxylic acid {5-[4-(1,1-dioxo-thiomorpholin-4-ylmethyl)-phenyl]-[1,2,4]triazolo[1,5-a]pyridin-2-yl}-amide]", "values": [{"measurement": "Study 3 - ALT Mean CFB", "setting": "[1]", "value": 0.0, "unit": "IU/L"}, {"measurement": "Study 3 - ALT Mean percentage CFB", "setting": "[1]", "value": 8.3, "unit": "%"}, {"measurement": "Study 3 - ALT Mean CFB", "setting": "[2]", "value": "−0.6", "unit": "IU/L"}, {"measurement": "Study 3 - ALT Mean percentage CFB", "setting": "[2]", "value": 5.8, "unit": "%"}, {"measurement": "Study 3 - ALT Mean CFB", "setting": "[3]", "value": "−1.2", "unit": "IU/L"}, {"measurement": "Study 3 - ALT Mean percentage CFB", "setting": "[3]", "value": 3.1, "unit": "%"}, {"measurement": "Study 3 - ALT Mean CFB", "setting": "[4]", "value": 1.6, "unit": "IU/L"}, {"measurement": "Study 3 - ALT Mean percentage CFB", "setting": "[4]", "value": 24.4, "unit": "%"}, {"measurement": "Study 3 - ALT Mean CFB", "setting": "[5]", "value": "−2.03", "unit": "IU/L"}, {"measurement": "Study 3 - ALT Mean percentage CFB", "setting": "[5]", "value": "−4.84", "unit": "%"}, {"measurement": "Study 3 - ALT Mean CFB", "setting": "[6]", "value": "−1.93", "unit": "IU/L"}, {"measurement": "Study 3 - ALT Mean percentage CFB", "setting": "[6]", "value": "−3.24", "unit": "%"}, {"measurement": "Study 3 - ALT Mean CFB", "setting": "[7]", "value": "−1.60", "unit": "IU/L"}, {"measurement": "Study 3 - ALT Mean percentage CFB", "setting": "[7]", "value": "−0.60", "unit": "%"}, {"measurement": "Study 3 - ALT Mean CFB", "setting": "[8]", "value": "−0.50", "unit": "IU/L"}, {"measurement": "Study 3 - ALT Mean percentage CFB", "setting": "[8]", "value": 5.92, "unit": "%"}, {"measurement": "Study 3 - ALT Mean CFB", "setting": "[9]", "value": 0.03, "unit": "IU/L"}, {"measurement": "Study 3 - ALT Mean percentage CFB", "setting": "[9]", "value": 3.56, "unit": "%"}, {"measurement": "Study 3 - ALT Mean CFB", "setting": "[10]", "value": 0.21, "unit": "IU/L"}, {"measurement": "Study 3 - ALT Mean percentage CFB", "setting": "[10]", "value": 8.83, "unit": "%"}, {"measurement": "Study 3 - ALT Mean CFB", "setting": "[11]", "value": 6.15, "unit": "IU/L"}, {"measurement": "Study 3 - ALT Mean percentage CFB", "setting": "[11]", "value": 38.62, "unit": "%"}, {"measurement": "Study 3 - ALT Mean CFB", "setting": "[12]", "value": "−2.30", "unit": "IU/L"}, {"measurement": "Study 3 - ALT Mean percentage CFB", "setting": "[12]", "value": 3.63, "unit": "%"}, {"measurement": "Study 3 - ALT Mean CFB", "setting": "[13]", "value": "−2.04", "unit": "IU/L"}, {"measurement": "Study 3 - ALT Mean percentage CFB", "setting": "[13]", "value": 8.87, "unit": "%"}, {"measurement": "Study 3 - ALT Mean CFB", "setting": "[14]", "value": "−3.78", "unit": "IU/L"}, {"measurement": "Study 3 - ALT Mean percentage CFB", "setting": "[14]", "value": 1.03, "unit": "%"}, {"measurement": "Study 3 - ALT Mean CFB", "setting": "[15]", "value": "−1.48", "unit": "IU/L"}, {"measurement": "Study 3 - ALT Mean percentage CFB", "setting": "[15]", "value": 12.60, "unit": "%"}, {"measurement": "Study 3 - ALT Mean CFB", "setting": "[16]", "value": 1.48, "unit": "IU/L"}, {"measurement": "Study 3 - ALT Mean percentage CFB", "setting": "[16]", "value": 16.15, "unit": "%"}, {"measurement": "Study 3 - ALT Mean CFB", "setting": "[17]", "value": 1.90, "unit": "IU/L"}, {"measurement": "Study 3 - ALT Mean percentage CFB", "setting": "[17]", "value": 23.87, "unit": "%"}, {"measurement": "Study 3 - ALT Mean CFB", "setting": "[18]", "value": "−0.38", "unit": "IU/L"}, {"measurement": "Study 3 - ALT Mean percentage CFB", "setting": "[18]", "value": 17.82, "unit": "%"}, {"measurement": "Study 3 - ALT Mean CFB", "setting": "[19]", "value": 1.46, "unit": "IU/L"}, {"measurement": "Study 3 - ALT Mean percentage CFB", "setting": "[19]", "value": 14.82, "unit": "%"}, {"measurement": "Study 3 - ALT Mean CFB", "setting": "[20]", "value": 0.36, "unit": "IU/L"}, {"measurement": "Study 3 - ALT Mean percentage CFB", "setting": "[20]", "value": 8.36, "unit": "%"}, {"measurement": "Study 3 - ALT Mean CFB", "setting": "[21]", "value": "−0.17", "unit": "IU/L"}, {"measurement": "Study 3 - ALT Mean percentage CFB", "setting": "[21]", "value": 5.47, "unit": "%"}, {"measurement": "Study 3 - ALT Mean CFB", "setting": "[22]", "value": 3.75, "unit": "IU/L"}, {"measurement": "Study 3 - ALT Mean percentage CFB", "setting": "[22]", "value": 38.09, "unit": "%"}, {"measurement": "Study 3 - ALT Mean CFB", "setting": "[23]", "value": 3.00, "unit": "IU/L"}, {"measurement": "Study 3 - ALT Mean percentage CFB", "setting": "[23]", "value": 26.61, "unit": "%"}, {"measurement": "Study 3 - ALT Mean CFB", "setting": "[24]", "value": 4.04, "unit": "IU/L"}, {"measurement": "Study 3 - ALT Mean percentage CFB", "setting": "[24]", "value": 33.15, "unit": "%"}, {"measurement": "Study 3 - ALT Mean CFB", "setting": "[25]", "value": 2.53, "unit": "IU/L"}, {"measurement": "Study 3 - ALT Mean percentage CFB", "setting": "[25]", "value": 22.15, "unit": "%"}, {"measurement": "Study 3 - ALT Mean CFB", "setting": "[26]", "value": "−0.55", "unit": "IU/L"}, {"measurement": "Study 3 - ALT Mean percentage CFB", "setting": "[26]", "value": 10.24, "unit": "%"}, {"measurement": "Study 3 - ALT Mean CFB", "setting": "[27]", "value": "−1.95", "unit": "IU/L"}, {"measurement": "Study 3 - ALT Mean percentage CFB", "setting": "[27]", "value": 2.75, "unit": "%"}, {"measurement": "Study 3 - ALT Mean CFB", "setting": "[28]", "value": "−2.05", "unit": "IU/L"}, {"measurement": "Study 3 - ALT Mean percentage CFB", "setting": "[28]", "value": 4.96, "unit": "%"}]}
